Assay results as given in PMC4683934, “Effect of an ethanol extract of Descurainia sophia seeds on Phase I and II drug metabolizing enzymes and P-glycoprotein activity in vitro” (BMC Complementary and Alternative Medicine, 2015).

Tests used:
UGT1A1 = biological target: T1, UGT1A1 (Homo sapiens, UniProt P22309); test: Luminogenic UGT1A1 inhibition assay; type: biochemical; details: specific inhibitor positive control, means ± S.D., read-out: IC50 Inhibitors
T1 construct: purchased Promega V2120
T1 sequence (P22309 26-533): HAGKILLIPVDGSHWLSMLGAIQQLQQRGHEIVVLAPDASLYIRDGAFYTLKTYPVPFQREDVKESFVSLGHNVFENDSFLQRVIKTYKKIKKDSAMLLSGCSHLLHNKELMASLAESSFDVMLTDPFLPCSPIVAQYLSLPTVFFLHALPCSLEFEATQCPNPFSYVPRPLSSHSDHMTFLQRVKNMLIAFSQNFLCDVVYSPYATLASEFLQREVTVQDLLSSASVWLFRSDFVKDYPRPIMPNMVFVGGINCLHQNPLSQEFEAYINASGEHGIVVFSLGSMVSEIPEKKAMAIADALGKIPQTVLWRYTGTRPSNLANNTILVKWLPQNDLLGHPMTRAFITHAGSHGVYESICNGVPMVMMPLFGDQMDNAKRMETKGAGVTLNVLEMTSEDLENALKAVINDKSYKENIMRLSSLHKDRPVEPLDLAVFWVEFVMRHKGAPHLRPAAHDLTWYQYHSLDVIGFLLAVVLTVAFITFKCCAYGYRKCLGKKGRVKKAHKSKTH
Source text: In vitro enzymatic inhibition assays of human Phase I (CYPs) and Phase II (UGTs) DME, and P-gp were done with commercially available luminogenic assay systems. The assay systems were purchased from Promega (Madison, WI, USA), and the microsomes containing the recombinant human CYPs were purchased from Life Technologies (Carlsbad, CA, USA). The microsomes containing human UGT and P-gp were supplied in the luminogenic assay systems (Promega). […]. […]. The enzyme reaction was done according to the manufacturer’s instructions. The luminescent intensity, which is correlated with the enzyme activity, was quantified with a TriStar LB 941 multimode microplate reader (Berthold Technologies, Bad Wildbad, Germany). […]

P-gp [1] = biological target: T2, P-gp (Homo sapiens, UniProt P08183); test: Luminogenic P-gp (ATPase) inhibition assay; type: biochemical; details: specific inhibitor positive control, means ± S.D., read-out: IC50 Inhibitors
T2 construct: purchased Promega V3601
T2 sequence (P08183 whole entry): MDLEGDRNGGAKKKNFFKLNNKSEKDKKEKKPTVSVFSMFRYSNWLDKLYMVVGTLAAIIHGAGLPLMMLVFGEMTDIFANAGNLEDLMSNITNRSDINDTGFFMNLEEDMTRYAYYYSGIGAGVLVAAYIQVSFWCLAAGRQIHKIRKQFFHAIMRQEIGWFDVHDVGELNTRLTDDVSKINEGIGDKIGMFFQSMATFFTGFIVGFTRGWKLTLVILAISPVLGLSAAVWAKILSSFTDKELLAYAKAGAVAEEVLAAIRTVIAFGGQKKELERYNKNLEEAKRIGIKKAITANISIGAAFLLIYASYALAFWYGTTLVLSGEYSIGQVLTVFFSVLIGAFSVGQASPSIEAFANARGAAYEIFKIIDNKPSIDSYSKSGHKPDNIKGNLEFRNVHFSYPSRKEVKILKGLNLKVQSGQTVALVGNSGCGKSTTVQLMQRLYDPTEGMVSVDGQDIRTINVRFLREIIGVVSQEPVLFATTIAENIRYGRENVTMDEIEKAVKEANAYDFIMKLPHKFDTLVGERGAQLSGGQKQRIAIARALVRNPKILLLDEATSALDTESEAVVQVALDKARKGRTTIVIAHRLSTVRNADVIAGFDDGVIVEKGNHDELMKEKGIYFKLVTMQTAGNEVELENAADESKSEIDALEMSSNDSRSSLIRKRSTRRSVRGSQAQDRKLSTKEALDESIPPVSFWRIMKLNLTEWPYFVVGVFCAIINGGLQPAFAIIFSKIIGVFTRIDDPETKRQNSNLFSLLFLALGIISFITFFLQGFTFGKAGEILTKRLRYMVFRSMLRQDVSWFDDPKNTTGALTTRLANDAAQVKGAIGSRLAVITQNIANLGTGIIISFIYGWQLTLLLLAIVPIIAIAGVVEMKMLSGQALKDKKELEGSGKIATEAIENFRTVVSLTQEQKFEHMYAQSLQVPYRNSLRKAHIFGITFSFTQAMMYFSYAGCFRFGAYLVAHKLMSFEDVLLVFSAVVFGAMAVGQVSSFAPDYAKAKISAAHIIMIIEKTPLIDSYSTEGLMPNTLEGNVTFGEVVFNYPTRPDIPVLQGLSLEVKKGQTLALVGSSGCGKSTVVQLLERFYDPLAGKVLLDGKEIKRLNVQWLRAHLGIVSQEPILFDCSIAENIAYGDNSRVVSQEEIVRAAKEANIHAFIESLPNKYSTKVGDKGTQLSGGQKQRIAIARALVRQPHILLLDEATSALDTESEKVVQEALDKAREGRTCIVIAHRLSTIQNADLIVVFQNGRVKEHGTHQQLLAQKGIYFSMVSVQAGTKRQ
Source text: In vitro enzymatic inhibition assays of human Phase I (CYPs) and Phase II (UGTs) DME, and P-gp were done with commercially available luminogenic assay systems. The assay systems were purchased from Promega (Madison, WI, USA), and the microsomes containing the recombinant human CYPs were purchased from Life Technologies (Carlsbad, CA, USA). The microsomes containing human UGT and P-gp were supplied in the luminogenic assay systems (Promega). […] The enzyme reaction was done according to the manufacturer’s instructions.

human UGT2B17 = test system: human UGT2B17; set-up: method as in PMID 22958586; details: cited from earlier work
[2] = test system: LPS-stimulated RAW264.7 cells; set-up: method as in PMID 23435946, PMID 23935669; details: cited from earlier work
CYP2C = details: competitive inhibitor; cited from earlier work
UGT1A3 = test system: UGT1A3; set-up: method as in PMID 23339253; details: cited from earlier work
P-gp [3] = biological target: T2, P-gp; set-up: method as in PMID 17256728; details: adriamycin-resisitant human breast cancer cells, MCF-7/ADR; cited from earlier work

O=C(O)Cc1ccccc1Nc1c(Cl)cccc1Cl [Diclofenac]
IC50 (UGT1A1): 180 ± 29.6 µM

[Na+].[Na+].[Na+].[O]=[V]([O-])([O-])[O-] [Na3VO4]
IC50 (P-gp [1]): 3.4 ± 0.32 µM

O=c1c(O)c(-c2ccc(O)c(O)c2)oc2cc(O)cc(O)c12 [Quercetin]
inhibition of human UGT2B17 (human UGT2B17): inhibits | median effective doses (ED50), inhibition of NO production [2]: 5.5 µM | Ki (CYP2C): 1.67 µM

COc1cc2c(c(OC)c1OC)-c1c(cc(OC)c(OC)c1OC)C[C@H](C)[C@H](C)C2 [deoxyschizandrin]
inhibition of UGT1A3 isotype (UGT1A3): potently inhibit

COc1cc([C@H]2OC[C@H]3[C@@H]2CO[C@@H]3c2cc(OC)c(O)c(OC)c2)cc(OC)c1O [syringaresinol]
median effective doses (ED50), inhibition of NO production [2]: 10.0 µM | inhibitory effects on P-gp (P-gp [3]): exhibited inhibitory effects

schisantherin A
inhibition of UGT1A3 isotype (UGT1A3): potently inhibit
